Results reported in article PMC11219871, “Epigenetic-based differentiation therapy for Acute Myeloid Leukemia” (Nature Communications, 2024).
Where two headings read alike, the source gives them in different places.

Assays:
[1] = tested on: ML-2; assay: RNA-seq; format: cell-based, human; conditions: for ABI1 Log2FC / CBFB Log2FC / CCR2 Log2FC / CD44 Log2FC / CDK6 Log2FC / CEBPB Log2FC / CSF3R Log2FC / CTNNBIP1 Log2FC / ELANE Log2FC / EP300 Log2FC / FLI1 Log2FC / FUT4 Log2FC / GATA2 Log2FC / HCLS1 Log2FC / ITGA4 Log2FC / ITGAM Log2FC / ITGB1 Log2FC / ITGB2 Log2FC / JUN Log2FC / MPO Log2FC / MYC Log2FC / NFE2 Log2FC / PIR Log2FC / RUNX1 Log2FC / SOX4 Log2FC / SPI1 Log2FC / TESC Log2FC / TRIB1 Log2FC / ZBTB46 Log2FC / ZFP36L1 Log2FC: ML-2, RNA-Seq
Description: (§1) Transcriptomic analyses were performed following low-input 3′ end RNA sequencing approximation for characterization of transcriptional changes in ML-2 and HL-60 samples treated with CM-444 and CM-1758.
(§2) Low-input 3′ end RNA-seq was performed as previously described[53],[54] with minor modifications. Briefly, RNA from 0.1 ×10^6 cells from each experimental condition was purified using a Dynabeads mRNA DIRECT Purification Kit (Thermo Fisher Scientific). For barcoded cDNA generation, polyadenylated RNA was retrotranscribed using an Affinity Script cDNA Synthesis Kit (Agilent Technologies), and barcoded primers also harboring T7 promoter and a partial Read2 sequence for illumine sequencing (CGATTGAGGCCGGTAATACGACTCACTATAGGGGGCGACGTGTGCTCTTCCGATCTXXXXXXNNNNTTTTTTTTTTTTTTTTTTTT, where XXXXXX is the cell barcode and NNN is a unique molecular identifier or UMI, which represents the same initial RNA molecule for future quantification). At this point, the samples were pooled (≤6 samples per pool) at equimolar ratios assessed by q-PCR.
(§3) The samples were then treated with Exonuclease I (Thermo Fisher Scientific following a 1.2x positive SPRI-selection. Second-strand cDNA synthesis was then performed using a NEBNext Ultra II Directional RNA Second-Strand Synthesis Module (New England Biolabs) for 2 h at 16 °C, followed by a 1.4x positive solid-phase reverse immobilization (SPRI) cleanup. The samples were linearly amplified by T7 in vitro transcription using a T7 RNA Polymerase (New England Biolabs) for 16 h at 37 °C. After DNAse treatment (TURBO DNAse I, Thermo Fisher Scientific) for 15 min at 37 °C to remove dsDNA, samples were cleaned with a positive 1.2x SPRI-selection. RNA size, quality, and concentration were determined by analysis with a Qubit Fluorometer (Termo Fisher Scientific) and TapeStation (Agilent 4200 TapeSation System, Agilent Technologies). If necessary, RNA was fragmented in 200- to 300-bp fragments using Zn2+divalent cations followed by a 2x positive SPRI cleanup. Fragmented RNA was dephosphorylated using FastAP Thermosensitive Alkaline Phosphatase (Thermo Fisher Scientific) for 10 min at 37 °C to enhance RNA ligation yield. In this step, a partial Read1 ([…]) sequence for illumine sequencing was ligated to the 3′ end of the fragmented RNA using T4 RNA Ligase I (New England Biolabs). After a 1.5x positive SPRI cleanup, the RNA product was retrotranscribed using an Affinity Script cDNA Synthesis Kit (Agilent Technologies) and a specific retrotranscription primer ([…]). The library was then purified by 1.5x positive SPRI cleanup, and the yield of the previous steps was determined by q-PCR. Finally, PCR using KAPA HiFi HotStar Ready Mix (Kapa Biosystems) was performed for second-strand cDNA synthesis, illumine primers addition (Read1-P5: […] and Read2-P7: […]) and library amplification using the recommended cycle numbers to minimize over-amplification. The product was purified by a 0.7x positive SPRI cleanup. The quality of the final library was determined by q-PCR (based on the threshold cycle, or Ct, obtained for GAPDH (Fw: […], Rv: […]) or GUSB (Fw: […], Rv: […]) housekeeping genes calibrated per individual set of samples, Qubit Fluorometer (Thermo Fisher Scientific) and TapeStation (Agilent 4200 TapeStation System, Agilent Technologies). All libraries were pooled at equimolar ratios and sequenced on a NextSeq500 (Illumina) using 60 bp single-end reads at a minimum sequence depth of 10 million reads per sample.
(§4) Raw reads were demultiplexed using bcl2fastq2 Conversion Software v2.19 (Illumina) to convert base call (BCL) files into FastQ files. The quality control of FastQ files was performed using FastQC (Bioinformatics Babraham Institute). Sequencing reads were aligned to hg19 human reference using Bowtie 2 (Johns Hopkins University) and quantified using quant3p script (github.com/ctlab/quant3p). […]

[2] = tested on: HL-60; assay: RNA-seq; format: cell-based, human; conditions: for ABI1 Log2FC / CBFB Log2FC / CCR2 Log2FC / CD44 Log2FC / CDK6 Log2FC / CEBPB Log2FC / CSF3R Log2FC / CTNNBIP1 Log2FC / ELANE Log2FC / EP300 Log2FC / FLI1 Log2FC / FUT4 Log2FC / GATA2 Log2FC / HCLS1 Log2FC / ITGA4 Log2FC / ITGAM Log2FC / ITGB1 Log2FC / ITGB2 Log2FC / JUN Log2FC / MPO Log2FC / MYC Log2FC / NFE2 Log2FC / PIR Log2FC / RUNX1 Log2FC / SOX4 Log2FC / SPI1 Log2FC / TESC Log2FC / TRIB1 Log2FC / ZBTB46 Log2FC / ZFP36L1 Log2FC: HL-60, RNA-Seq
Description: as §1, §2, §3, §4

[3] = ML-2, 25% GI50, 12 h, log2FC +/-1
[4] = HL-60, 25% GI50, 12 h, log2FC +/-1

COc1cc2nc(-c3cc(C)oc3C)cc(NCC3CCN(c4ncc(C(=O)NO)cn4)CC3)c2cc1OC [CM-1758, 2-[4-[[[2-(2,5-dimethyl-3-furyl)-6,7-dimethoxy-4-quinolyl]amino]methyl] -1-piperidyl]pyrimidine-5-carbohydroxamic acid]
deregulated genes (RNA-seq) [1]: 3750 | down-regulated genes (RNA-seq) [1]: 2024 | up-regulated genes (RNA-seq) [1]: 1726 | deregulated genes (RNA-seq) [1, 3]: 2520 | down-regulated genes (RNA-seq) [1, 3]: 1183 | up-regulated genes (RNA-seq) [1, 3]: 1337 | ABI1 Log2FC [1]: 1.097 | CBFB Log2FC [1]: 0.03944 | CCR2 Log2FC [1]: -0.7456 | CD44 Log2FC [1]: 0.03189 | CDK6 Log2FC [1]: -1.439 | CEBPB Log2FC [1]: 0.5234 | CSF3R Log2FC [1]: -1.197 | CTNNBIP1 Log2FC [1]: 0.1531 | ELANE Log2FC [1]: -2.561 | EP300 Log2FC [1]: 0.4661 | FLI1 Log2FC [1]: -0.175 | FUT4 Log2FC [1]: -1.092 | GATA2 Log2FC [1]: 2.602 | HCLS1 Log2FC [1]: -0.435 | ITGA4 Log2FC [1]: -1.164 | ITGAM Log2FC [1]: 1.457 | ITGB1 Log2FC [1]: 0.9913 | ITGB2 Log2FC [1]: -0.1511 | JUN Log2FC [1]: 1.4026 | MPO Log2FC [1]: -2.925 | MYC Log2FC [1]: -2.637 | NFE2 Log2FC [1]: -0.1388 | PIR Log2FC [1]: 0.9099 | RUNX1 Log2FC [1]: 0.04441 | SOX4 Log2FC [1]: 0.5561 | SPI1 Log2FC [1]: -1.467 | TESC Log2FC [1]: -0.171 | TRIB1 Log2FC [1]: -0.1972 | ZBTB46 Log2FC [1]: -0.02647 | ZFP36L1 Log2FC [1]: 4.387 | deregulated genes (RNA-seq) [2]: 3299 | down-regulated genes (RNA-seq) [2]: 1610 | up-regulated genes (RNA-seq) [2]: 1589 | deregulated genes (RNA-seq) [2, 4]: 1278 | down-regulated genes (RNA-seq) [2, 4]: 409 | up-regulated genes (RNA-seq) [2, 4]: 869 | ABI1 Log2FC [2]: 0.03309 | CBFB Log2FC [2]: -0.1665 | CCR2 Log2FC [2]: 0.8564 | CD44 Log2FC [2]: -0.4326 | CDK6 Log2FC [2]: 0.05972 | CEBPB Log2FC [2]: 0.4359 | CSF3R Log2FC [2]: 0.06074 | CTNNBIP1 Log2FC [2]: 1.186 | ELANE Log2FC [2]: -1.7362 | EP300 Log2FC [2]: -0.1778 | FLI1 Log2FC [2]: -0.2831 | FUT4 Log2FC [2]: -1.407 | GATA2 Log2FC [2]: 0.09944 | HCLS1 Log2FC [2]: -0.1237 | ITGA4 Log2FC [2]: -1.197 | ITGAM Log2FC [2]: 2.404 | ITGB1 Log2FC [2]: 0.9626 | ITGB2 Log2FC [2]: 0.07825 | JUN Log2FC [2]: 0.9774 | MPO Log2FC [2]: -2.297 | MYC Log2FC [2]: -2.139 | NFE2 Log2FC [2]: -0.3801 | PIR Log2FC [2]: 1.629 | RUNX1 Log2FC [2]: -0.01075 | SOX4 Log2FC [2]: 0.2112 | SPI1 Log2FC [2]: -0.6241 | TESC Log2FC [2]: -0.09114 | TRIB1 Log2FC [2]: -0.4986 | ZBTB46 Log2FC [2]: 0.4368 | ZFP36L1 Log2FC [2]: 1.334

COc1cc2nc(-c3ccc(C)o3)cc(NCC3CCN(c4ncc(C(=O)NO)cn4)CC3)c2cc1OC [CM-444, 2-[4-[[[6,7-dimethoxy-2-(5-methyl-2-furyl)-4-quinolyl]amino]methyl]-1-piperidyl]pyrimidine-5-carbohydroxamic acid]
deregulated genes (RNA-seq) [1]: 558 | down-regulated genes (RNA-seq) [1]: 88 | up-regulated genes (RNA-seq) [1]: 470 | deregulated genes (RNA-seq) [1, 3]: 460 | down-regulated genes (RNA-seq) [1, 3]: 44 | up-regulated genes (RNA-seq) [1, 3]: 416 | ABI1 Log2FC [1]: 0.61 | CBFB Log2FC [1]: 0.4078 | CCR2 Log2FC [1]: 0.3405 | CD44 Log2FC [1]: 0.2468 | CDK6 Log2FC [1]: -0.3705 | CEBPB Log2FC [1]: 0.009186 | CSF3R Log2FC [1]: -0.2226 | CTNNBIP1 Log2FC [1]: 0.1064 | ELANE Log2FC [1]: -0.8925 | EP300 Log2FC [1]: 0.282 | FLI1 Log2FC [1]: 0.279 | FUT4 Log2FC [1]: -0.09706 | GATA2 Log2FC [1]: 1.078 | HCLS1 Log2FC [1]: 0.03361 | ITGA4 Log2FC [1]: -0.1245 | ITGAM Log2FC [1]: 1.391 | ITGB1 Log2FC [1]: 0.4551 | ITGB2 Log2FC [1]: -0.139 | JUN Log2FC [1]: 1.102 | MPO Log2FC [1]: -1.303 | MYC Log2FC [1]: -0.4866 | NFE2 Log2FC [1]: 0.3613 | PIR Log2FC [1]: 1.319 | RUNX1 Log2FC [1]: -0.08636 | SOX4 Log2FC [1]: 0.2683 | SPI1 Log2FC [1]: 0.1755 | TESC Log2FC [1]: 0.4308 | TRIB1 Log2FC [1]: -0.2715 | ZBTB46 Log2FC [1]: -0.2139 | ZFP36L1 Log2FC [1]: 2.504 | deregulated genes (RNA-seq) [2]: 227 | down-regulated genes (RNA-seq) [2]: 39 | up-regulated genes (RNA-seq) [2]: 188 | deregulated genes (RNA-seq) [2, 4]: 136 | down-regulated genes (RNA-seq) [2, 4]: 3 | up-regulated genes (RNA-seq) [2, 4]: 133 | ABI1 Log2FC [2]: -0.1754 | CBFB Log2FC [2]: -0.0298 | CCR2 Log2FC [2]: 0.967 | CD44 Log2FC [2]: -0.2341 | CDK6 Log2FC [2]: 0.2817 | CEBPB Log2FC [2]: -0.1067 | CSF3R Log2FC [2]: 0.0126 | CTNNBIP1 Log2FC [2]: 0.7431 | ELANE Log2FC [2]: -2.007 | EP300 Log2FC [2]: -0.2558 | FLI1 Log2FC [2]: -0.04836 | FUT4 Log2FC [2]: -0.2495 | GATA2 Log2FC [2]: -0.2076 | HCLS1 Log2FC [2]: -0.2476 | ITGA4 Log2FC [2]: -0.309 | ITGAM Log2FC [2]: 0.9545 | ITGB1 Log2FC [2]: 0.4474 | ITGB2 Log2FC [2]: -0.1397 | JUN Log2FC [2]: 0.8212 | MPO Log2FC [2]: -0.2249 | MYC Log2FC [2]: -0.2011 | NFE2 Log2FC [2]: -0.621 | PIR Log2FC [2]: 0.9082 | RUNX1 Log2FC [2]: -0.1954 | SOX4 Log2FC [2]: 0.2596 | SPI1 Log2FC [2]: -0.5566 | TESC Log2FC [2]: 0.05581 | TRIB1 Log2FC [2]: 0.02008 | ZBTB46 Log2FC [2]: 0.2361 | ZFP36L1 Log2FC [2]: 0.9631
